According to patent US8686113B2 (priority 2009, dated 2014):
≈ marks a conversion by molar mass, not a printed value. Read-outs that look alike come from different tables or passages of the source. Non-standard residues stand in square brackets, D forms with d. Residues, ends and D or L forms follow the SMILES beside them. No end group written: not given here. *: point of attachment. Hyp = O=C(O)[C@@H]1C[C@@H](O)CN1; hArg = N=C(N)NCCCC[C@H](N)C(=O)O; β3hR = N=C(N)NCCC[C@H](N)CC(=O)O; Orn = NCCC[C@H](N)C(=O)O; NHPr = CCCN*

Assays:
[1] = mouse, serum, Half-life in 25% mouse serum, 25% aqueous mouse serum, 37° C., 75 μg/mL peptide
Procedure: For this, the peptides and peptidomimetics were dissolved in water, mouse serum was added and the peptide concentration was adjusted to 75 μg/mL. While shaking continuously, the mixture was incubated at 37° C. After 0, 30, 60, 120, 240 and 360 minutes, in each case an aliquot was taken and mixed with 15% aqueous trichloroacetic acid (Carl Roth GmbH & Co. KG; Karlsruhe, Germany). After incubation on ice for a further 10 minutes, the precipitated serum proteins were centrifuged off (5 min, 13400 rpm, MiniSpin, Eppendorf AG, Hamburg, Germany). The supernatant was removed, neutralized with 1 mol/L aqueous sodium hydroxide solution (Fluke Chemie GmbH, Buchs, Switzerland) and stored at −20° C. until analysis.
The supernatants were analyzed by RP-HPLC with a linear acetonitrile gradient (Biosolve BV, Valkenswaard, The Netherlands) in the presence of 0.1% trifluoroacetic acid (TFA, UV-grade, Fluka Chemie GmbH, Buchs, Switzerland) as ion-pairing reagent. The fractions were co-crystallized with α-cyanohydroxycinnamic acid (Bruker Daltonik GmbH; Bremen, Germany) as matrix (5.3 mg/mL in 50% acetonitrile in 0.1% aqueous TFA) and were analyzed with a tandem mass spectrometer (MALDI-TOF/TOF-MS, 4700 Proteomics Analyzer; Applied Biosystems GmbH, Weiterstadt, Germany) in the positive-ion reflector mode. The proportion of intact peptides and their degradation products or metabolites could thus be identified and quantified at the individual time points. The control used was 25% aqueous mouse serum, which was analyzed in parallel for the same time intervals.

E. coli BL21 A1 = format: cell-based, Escherichia coli
How it was run: (§1)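 Broth microdilution in 1% TSB with twofold peptide series, final 128 μg/mL to 62.5 ng/mL, against 5×10^6 bacteria/mL stock suspension added 1:1. Incubated 20 h at 37 °C, growth read by absorbance at 595 nm; MIC is the lowest concentration with no growth, determined in triplicate.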

M. luteus 10240 = test: Growth inhibition assay (microdilution MIC); format: cell-based, Micrococcus luteus
How it was run: as §1

[2] = mouse, serum

Row | Compound | half-life [1] [h] | MIC E. coli BL21 A1 (E. coli BL21 A1; BL21, 20 h) [µg/mL] | MIC M. luteus 10240 (M. luteus 10240; 10240, 20 h) [µg/mL] | other results
1 | CC[C@H](C)[C@H](NC(=O)[C@H](CCCNC(=N)N)NC(=O)[C@H](CCCNC(=N)N)NC(=O)[C@@H]1CCCN1C(=O)[C@@H]1CCCN1C(=O)[C@H](CCCNC(=N)N)NC(=O)[C@@H]1CCCN1C(=O)[C@H](CCCNC(=N)N)NC(=O)[C@@H]1CCCN1C(=O)[C@H](CC(C)C)NC(=O)[C@H](Cc1ccc(O)cc1)NC(=O)[C@@H]1CCCN1C(=O)[C@@H]1CCCN1C(=O)[C@H](CCCCN)NC(=O)[C@H](CC(=O)O)NC(=O)[C@@H](N)C(C)C)C(=O)N[C@@H](Cc1ccc(O)cc1)C(=O)N[C@@H](CC(N)=O)C(=O)N[C@@H](CCCN)C(N)=O [SEQ ID NO. 50, VDKPPYLPRPRPPRRIYNO-NH2] (H-VDKPPYLPRPRPPRRIYN[Orn]-NH2) | 1.5 |  |  | 
2 | CCCNC(=O)[C@H](CCCNC(=N)N)NC(=O)[C@H](CC(N)=O)NC(=O)[C@H](Cc1ccc(O)cc1)NC(=O)[C@@H](NC(=O)[C@H](CCCNC(=N)N)NC(=O)[C@H](CCCNC(=N)N)NC(=O)[C@@H]1CCCN1C(=O)[C@@H]1CCCN1C(=O)[C@H](CCCNC(=N)N)NC(=O)[C@@H]1CCCN1C(=O)[C@H](CCCNC(=N)N)NC(=O)[C@@H]1CCCN1C(=O)[C@H](CC(C)C)NC(=O)[C@H](Cc1ccc(O)cc1)NC(=O)[C@@H]1CCCN1C(=O)[C@@H]1CCCN1C(=O)[C@H](CCCCN)NC(=O)[C@H](CC(=O)O)NC(=O)[C@@H](N)C(C)C)[C@@H](C)CC [SEQ ID NO. 58] (H-VDKPPYLPRPRPPRRIYNR-NHPr) | 2 |  |  | 
3 | CC[C@H](C)[C@H](NC(=O)[C@H](CCCN)NC(=O)[C@H](CCCNC(=N)N)NC(=O)[C@@H]1CCCN1C(=O)[C@@H]1CCCN1C(=O)[C@H](CCCNC(=N)N)NC(=O)[C@@H]1CCCN1C(=O)[C@H](CCCNC(=N)N)NC(=O)[C@@H]1CCCN1C(=O)[C@H](CC(C)C)NC(=O)[C@H](Cc1ccc(O)cc1)NC(=O)[C@@H]1CCCN1C(=O)[C@@H]1CCCN1C(=O)[C@H](CCCCN)NC(=O)[C@H](CC(=O)O)NC(=O)[C@@H](N)C(C)C)C(=O)N[C@@H](Cc1ccc(O)cc1)C(=O)N[C@@H](CC(N)=O)C(=O)N[C@@H](CCCNC(=N)N)C(N)=O [SEQ ID NO. 61, VDKPPYLPRPRPPROIYNR-NH2] (H-VDKPPYLPRPRPPR[Orn]IYNR-NH2) | 2 |  |  | 
4 | CC[C@H](C)[C@H](NC(=O)C[C@H](CCCNC(=N)N)NC(=O)[C@H](CCCNC(=N)N)NC(=O)[C@@H]1CCCN1C(=O)[C@@H]1CCCN1C(=O)[C@H](CCCNC(=N)N)NC(=O)[C@@H]1CCCN1C(=O)[C@H](CCCNC(=N)N)NC(=O)[C@@H]1CCCN1C(=O)[C@H](CC(C)C)NC(=O)[C@H](Cc1ccc(O)cc1)NC(=O)[C@@H]1CCCN1C(=O)[C@@H]1CCCN1C(=O)[C@H](CCCCN)NC(=O)[C@H](CC(=O)O)NC(=O)[C@@H](N)C(C)C)C(=O)N[C@@H](Cc1ccc(O)cc1)C(=O)N[C@@H](CC(N)=O)C(=O)N[C@@H](CCCNC(=N)N)C(N)=O [SEQ ID NO. 62] (H-VDKPPYLPRPRPPR[β3hR]IYNR-NH2) | 2.5 |  |  | 
5 | CCCNC(=O)[C@H](CCCNC(=N)N)NC(=O)[C@H](CC(N)=O)NC(=O)[C@H](Cc1ccc(O)cc1)NC(=O)[C@@H](NC(=O)[C@H](CCCN)NC(=O)[C@H](CCCNC(=N)N)NC(=O)[C@@H]1CCCN1C(=O)[C@@H]1CCCN1C(=O)[C@H](CCCNC(=N)N)NC(=O)[C@@H]1CCCN1C(=O)[C@H](CCCNC(=N)N)NC(=O)[C@@H]1CCCN1C(=O)[C@H](CC(C)C)NC(=O)[C@H](Cc1ccc(O)cc1)NC(=O)[C@@H]1CCCN1C(=O)[C@@H]1CCCN1C(=O)[C@H](CCCCN)NC(=O)[C@H](CC(=O)O)NC(=O)[C@@H](N)C(C)C)[C@@H](C)CC [SEQ ID NO. 71, VDKPPYLPRPRPPROIYNR-NHC3H7] (H-VDKPPYLPRPRPPR[Orn]IYNR-NHPr) | > 6 | 4 (≈ 1.67 µM) |  | 
6 | CC[C@H](C)[C@H](NC(=O)[C@@H]1C[C@@H](O)CN1C(=O)[C@H](CCCNC(=N)N)NC(=O)[C@@H]1CCCN1C(=O)[C@@H]1CCCN1C(=O)[C@H](CCCNC(=N)N)NC(=O)[C@@H]1CCCN1C(=O)[C@H](CCCNC(=N)N)NC(=O)[C@@H]1CCCN1C(=O)[C@H](CC(C)C)NC(=O)[C@H](Cc1ccc(O)cc1)NC(=O)[C@@H]1CCCN1C(=O)[C@@H]1CCCN1C(=O)[C@H](CCCCN)NC(=O)[C@H](CC(=O)O)NC(=O)[C@@H](N)C(C)C)C(=O)N[C@@H](Cc1ccc(O)cc1)C(=O)N[C@@H](CC(N)=O)C(=O)N[C@@H](CCCNC(=N)N)C(N)=O [compound 25] (H-VDKPPYLPRPRPPR[Hyp]IYNR-NH2) |  | 16 (≈ 6.82 µM) | 8 (≈ 3.41 µM) | half-life [2]: 4 h
7 | CC[C@H](C)[C@H](NC(=O)[C@H](CCCCNC(=N)N)NC(=O)[C@H](CCCNC(=N)N)NC(=O)[C@@H]1CCCN1C(=O)[C@@H]1CCCN1C(=O)[C@H](CCCNC(=N)N)NC(=O)[C@@H]1CCCN1C(=O)[C@H](CCCNC(=N)N)NC(=O)[C@@H]1CCCN1C(=O)[C@H](CC(C)C)NC(=O)[C@H](Cc1ccc(O)cc1)NC(=O)[C@@H]1CCCN1C(=O)[C@@H]1CCCN1C(=O)[C@H](CCCCN)NC(=O)[C@H](CC(=O)O)NC(=O)[C@@H](N)C(C)C)C(=O)N[C@@H](Cc1ccc(O)cc1)C(=O)N[C@@H](CC(N)=O)C(=O)N[C@@H](CCCCNC(=N)N)C(N)=O [compound 67] (H-VDKPPYLPRPRPPR[hArg]IYN[hArg]-NH2) |  | 4 (≈ 1.65 µM) | 4 (≈ 1.65 µM) | half-life [2]: 0.917 h
8 | H-VDKPPYLPRPRPPRRAYNR-NH2 [compound 44] |  | 16 | 16 | 
9 | H-VDKPPYLPRPRPPRRIANR-NH2 [compound 45] |  | 8 | 16 | 
10 | H-VDKPPYLPRPRPPRRIYAR-NH2 [compound 46] |  | 8 | 8 | 
11 | H-VDKPPYLPRPRPPRRIYN-NH2 [compound 27] |  | 32 | 64 | 
12 | H-VDKPPYLPRPRPPRRIYN-OH [SEQ ID NO. 28] | 2 |  |  | MIC E. coli BL21 A1 (E. coli BL21 A1; 1% TSB, 20 h at 37° C.): 64 µg/mL
13 | H-VDKPPYLPRPRPPRRIYNA-NH2 [compound 47] |  | 32 | 16 | 
14 | H-VDKPPYLPRPRPPRRIYNN-NH2 [compound 51] | 2 | 16 | 64 | 
15 | H-VDKPPYLPRPRPPRRIYNRN-NH2 [compound 17] | 0.75 | 16 | 128 | 
16 | H-VDKPPYLPRPRPPRRIYPQPRPPHPRL-NH2 [compound 49] |  | 4 | 4 | 
17 | H-VDKPPYLPRPRPPRRIYQR-NH2 [compound 79] |  | 8 | 8 | 
18 | H-VDKPPYLPRPRPPRRLYNR-NH2 [compound 78] |  | 8 | 16 | 
19 | H-VDKPPYLPRPRPRPRIYNR-NH2 [compound 59] |  | 8 | 16 | 
20 | H-VDKPPYLPRPTPPRRIYNNR-OH [compound 4] |  | 128 | 64 | 
21 | H-VDKPPYLPRPYPPRRIYNR-OH [compound 10] |  | 128 | 16 | 
22 | H-VDRPPYLPRPRPPRRIYNR-NH2 [compound 76] |  | 16 | 8 | 
23 | H-VEKPPYLPRPRPPRRIYNR-NH2 [compound 75] |  | 16 | 8 | 
24 | VDKGSYLPRPTPPRPIYNRN-NH2 [compound 91] |  | 16 |  | MIC M. luteus 10240 (M. luteus 10240; 1% TSB, 20 h at 37° C.): 128 µg/mL
25 | VDKPPYLPRPRPPRPIYNR-NH2 [SEQ ID NO. 60] | 2 |  |  | 
26 | VDKPPYLPRPRPPRPIYNR-NH2 [compound 60] |  | 8 | 64 | 
27 | VDKPPYLPRPRPPRRIYNNR-OH [SEQ ID NO. 14] | < 0.5 |  |  | 
28 | VDKPPYLPRPRPPRRIYNR-OH [SEQ ID NO. 19] | < 0.5 |  |  | 
